Test: in vitro
Conditions: human, hela cells, % viability

Compound | viability at 28.5 h, 10 µM
O=C(O)CCc1ccc(-c2ccc(Nc3cccnc3)nc2)cc1 [CBK037768] | 106%
O=C(O)CNC(=O)Cn1ccc2cc(OCc3ccccc3)ccc21 [CBK286665] | 81.2%
CC(=O)Nc1cccc(NC(=O)N2CCCC(CO)C2)c1 (centres unmarked) [CBK156049] | 108%
O=C(O)CCc1ccc(-c2ccc(Cl)cc2)[nH]1 [CBK264781] | 100%
Cc1nn2cc(-c3n[nH]cc3[N+](=O)[O-])cnc2c1C(N)=O [CBK268957] | 87.4%
Cc1cc(C(C)(C)C)ccc1OCCNCCN [CBK265097G] | 91.3%
O=[N+]([O-])c1ccc(S(=O)(=O)CC(CN2CCCC2)N2CCCC2)cc1 (centres unmarked) [CBK266991] | 112%
Cn1c(SCc2ccc([N+](=O)[O-])cc2)nnc1C(O)c1ccccc1 (centres unmarked) [CBK269735] | 88.6%
CC(C)(C)C(=O)N1CCN(Cc2ccc3c(c2)OCO3)CC1 [CBK074842] | 88.8%
CCC(CNC(=O)c1cc(-c2ccco2)nc2c(C(N)=O)ncn12)c1ccccc1 (centres unmarked) [CBK297779] | 94.2%
Cc1ccc(C)c(C2CCCN2C(=O)c2cccn(CC(=O)NC3CCCCC3)c2=O)c1 (centres unmarked) [CBK286010] | 93%
CN1CCN(Cc2n[nH]c(=S)n2-c2cccc(C#N)c2)CC1 [CBK015465] | 112%
CCn1ncnc1CN(c1cccc(CO)c1)C1Cc2ccccc2C1 [CBK304173] | 111%
Cc1ccc(C)c(NC(=S)NCCc2ccc(S(N)(=O)=O)cc2)c1 [CBK264879] | 100%
Cc1cnn(CC(=O)N2CCCC(COc3ccccc3F)C2)c1 (centres unmarked) [CBK281999] | 102%
Cc1ccc(CC(=O)N2CCC(Cc3ccccc3-c3ccccc3C)(C(N)=O)CC2)cc1 [CBK285727] | 98.2%
CCN1C(=O)/C(=C/c2cc(Br)ccc2OCc2cccc([N+](=O)[O-])c2)NC1=S [CBK265138] | 93.6%
CS(=O)(=O)Nc1nccnc1OC1CCN(CCCC#N)CC1 [CBK084276] | 99.4%
CN(Cc1ccccc1)c1nc2c(c(=O)n(C)c(=O)n2C)n1CCSc1ncccn1 [CBK269564] | 97.7%
O=C(O)COc1ccc(Br)cc1/C=C\c1nc(O)c([N+](=O)[O-])c(=O)[nH]1 [CBK267223] | 88.5%
COc1ccc(-n2c(SCC(=O)Nc3cccc(C(C)=O)c3)nc3sc(C)c(C)c3c2=O)cc1 [CBK091806] | 97.6%
Fc1ccccc1CN(CCCn1ccnc1)Cc1ccoc1 [CBK283024] | 89.9%

Compound | viability at 28.5 h, 10 µM
Cc1cccc(Cn2cnc(NC(=O)COc3ccc([N+](=O)[O-])c(C)c3)n2)c1 [CBK268177] | 118%
CC(=O)Oc1c(C)cc(CN(C)C(C)c2ccncc2)cc1C (centres unmarked) [CBK306915] | 73.2%
CN(C)S(=O)(=O)c1cc(C(=O)Nc2ccc(C(=O)O)cc2)c(Cl)cc1Cl [CBK266783] | 99.5%
Cc1nc(-c2ccccc2)sc1CNC(=O)CCc1c[nH]c2ccccc12 [CBK092373] | 106%
COc1ccc(Cl)cc1CN(C)C(=O)c1cc(C(C)C)n2ncnc2n1 [CBK307331] | 84.7%
O=C(Cc1ccsc1)N1CCC2(CCCNC2)C1 (centres unmarked) [CBK137153C] | 85.4%
O=C(CSc1nnc(-c2cccnc2)n1-c1ccc(Br)cc1)Nc1ccc2c(c1)OCCO2 [CBK266133] | 96.4%
CC1CCc2c(sc(NC(=O)c3cccs3)c2C(=O)N2CCOCC2)C1 (centres unmarked) [CBK307101] | 100%
Clc1ccc(Nc2ncnc3ccccc23)cc1 [CBK072625] | 86.1%
NS(=O)(=O)c1ccc(CCNC(=O)C2c3ccccc3Oc3ccccc32)cc1 [CBK264389] | 104%
Cc1cc(NC(=O)C2CCN(c3ncccc3C#N)CC2)no1 [CBK305689] | 88.3%
CN1CCC(N2CCN(C(=O)NCc3cccnc3)CC2)CC1 [CBK155889] | 89.2%
COc1cc(NC(=O)C2CCN(S(=O)(=O)c3cccs3)CC2)c(Cl)cc1C(=O)O [CBK297085] | 99.7%
COc1ccc(-c2noc([C@@H]3Cc4[nH]cnc4CN3C(=O)Nc3ccc(C)cc3)n2)cc1 [CBK288968] | 92.9%
COc1ccc(Sc2nc(SC)nc(-c3ccccc3)c2C#N)cc1 [CBK291212] | 94%
CCCCC(NS(=O)(=O)Cc1ccccc1)C(=O)O (centres unmarked) [CBK286798] | 91.1%
O=C(O)Cn1nnc(-c2ccncc2)n1 [CBK269884] | 86.6%
O=C1N=C(NC2CCCCCC2)SC1CC(=O)N(Cc1ccccc1)c1ccccc1 (centres unmarked) [CBK067394] | 85.2%
O=C(NCc1ccccc1)c1ccccc1NC(=O)C1CCCCC1C(=O)O (centres unmarked) [CBK269283] | 92%
O=C(NC1Cc2ccccc2C1)c1ccno1 [CBK200358] | 99.4%
CCC(Sc1nnc2c(n1)[nH]c1ccccc12)C(=O)Nc1sc2c(c1C#N)CCCC2 (centres unmarked) [CBK263917] | 80.3%

Same assay, conditions: human, hela cells, % viability, bulk resorufin, single well

Compound | viability at 28.5 h, 10 µM
CCC(NC(=O)c1cn(CCOC)c2ccccc12)c1ccncc1 (centres unmarked) [CBK305186] | 95.7%

From PMC12040169 (PLOS Biology, 2025)
